Tested on: adult, male Wistar rats
Experiment: Sleep-wakefulness monitoring (SCORE-2004, EEG/EMG) in rats after oral dosing at CT-18
Type: in vivo, rat
Settings: for LONGEST UNINTERRUPTED SLEEP BOUT: bout length defined in minutes; for MAXIMUM NREM SLEEP CUMULATION: cumulative nonREM defined in minutes, in min
Method: Sleep-wakefulness, locomotor activity and body temperature are monitored in male Wistar rats treated with a test compound (i.e., benzisoxazole analog) initially at a concentration of 10 mg/kg. Higher and lower doses are assayed for select compounds (e.g., as high as 45 mg/kg, and as low as necessary to establish a no-effect dose). Treatments are administered at CT-18, the peak of the activity dominated period (6 hours after lights-off), and produced soporific (sleep-inducing) effects characterized by increased non-REM sleep time, increased sleep continuity, but without evidence of REM sleep inhibition or rebound insomnia.
Sleep-wakefulness, locomotor activity and body temperature were monitored in vivo with various compounds of the invention. Adult, male Wistar rats (250 g at time of surgery, Charles River Laboratories, Wilmington Mass.) were anesthetized (2% isoflourane in medical grade oxygen) and surgically prepared with a cranial implant to permit chronic electro-encephalogram (EEG) and electromyogram (EMG) recording. Body temperature and locomotor activity were monitored via a miniature transmitter (Mini-Mitter, Bend, Oreg.) surgically placed in the abdomen. The cranial implant consisted of stainless steel screws (two frontal [+3.2 AP from bregma, ±2.0 ML] and two occipital [−6.9 AP, ±5.5 ML]) for EEG recording. Two Teflon®-coated stainless steel wires were positioned under the nuchal trapezoid muscles for EMG recording. All leads were soldered to a miniature connector prior to surgery, and gas sterilized in ethylene oxide. The implant assembly was affixed to the skull with dental acrylic. A minimum of three weeks was allowed for surgical recovery.
Each rat was permanently housed in its own individual recording cage located within separate, ventilated compartments of custom-designed stainless steel cabinets. Each cage was enhanced with a filter-top riser and low-torque swivel-commutator. Food and water were available ad libitum. A 24-hr light-dark cycle (12 hours light, 12 hours dark) was maintained throughout the study. Animals were undisturbed for at least 48 hours before and after treatments.
Sleep and wakefulness were determined using “SCORE-2004™” (Hypnion, Worcester, Mass.)—an internet-based sleep-wake and physiological monitoring system. The system monitored amplified EEG (bandpass 1-30 Hz), integrated EMG (bandpass 10-100 Hz), body temperature and non-specific locomotor activity (LMA) via telemetry, and drinking activity, continuously and simultaneously. Arousal states were classified on-line as non-REM (NREM) sleep, REM sleep, wake, or theta-dominated wake every 10 seconds. Total drinking and locomotor activity counts, and body temperature were quantitiated and recorded each minute, using EEG feature extraction and pattern-matching algorithms. […] The classification algorithm used individually-taught EEG-arousal-state templates, plus EMG criteria to differentiate REM sleep from theta-dominated wakefulness, plus behavior-dependent contextual rules (e.g., if the animal was drinking, it is awake). Drinking and locomotor activity intensity (LMA) were recorded every 10 seconds, while body temperature was recorded each minute. Locomotor activity was detected by a telemetry receiver (Mini-Mitter) beneath the cage. Telemetry measures (LMA and body temperature) were not part of the scoring algorithm; thus, sleep-scoring and telemetry data were independent measures.
Compounds were administered at CT-18, the peak of the activity-dominated period, sufficient time was allowed to view the time course of the treatment effect before lights-on (6 hours post-treatment). Compounds were suspended in sterile 0.25% or 0.5% methylcellulose (1-2 ml/kg). Treatments were administered orally as a bolus.
A parallel group study design was employed. […]

## CC(C)(CN1CCC(c2noc3ccccc23)CC1)C(=O)O [Compound 1]
0.3 mg/kg oral
  LONGEST UNINTERRUPTED SLEEP BOUT: 3.3 ± 1.8
  MAXIMUM NREM SLEEP CUMULATION: 13 ± 4
1 mg/kg oral
  LONGEST UNINTERRUPTED SLEEP BOUT: 17.2 ± 4.8
  MAXIMUM NREM SLEEP CUMULATION: 23 ± 6
3 mg/kg oral
  LONGEST UNINTERRUPTED SLEEP BOUT: 16.1 ± 2.3
  MAXIMUM NREM SLEEP CUMULATION: 21 ± 6
10 mg/kg oral
  LONGEST UNINTERRUPTED SLEEP BOUT: 15.2 ± 3.3
  MAXIMUM NREM SLEEP CUMULATION: 28 ± 5

— patent US8129410B2, “Benzisoxazole piperidine compounds and methods of use thereof” (Hypnion, Inc., priority 2005, dated 2012)
